Read-outs that look alike come from different tables or passages of the source.
Assays:
[1] = molecular target: T1, HCV polymerase (NS5B570n-Con1) (Hepatitis C virus genotype 1b, UniProt Q9WMX2); assay: HCV NS5B RNA polymerase activity; assay type: biochemical, HCV Con1 strain
T1 construct: contains a 21 amino acid deletion at the C-terminus relative to the full-length HCV polymerase; 6-histidine (N); made in house; host or cells: E. coli BL21 (DE) pLysS, plasmid pET17b
Procedure: The enzymatic activity of HCV polymerase (NS5B570n-Con1) was measured as the incorporation of radiolabeled nucleotide monophosphates into acid insoluble RNA products. Unincorporated radiolabeled substrate was removed by filtration and scintillant was added to the washed and dried filter plate containing radiolabeled RNA product. The amount of RNA product generated by NS5B570-Con1 at the end of the reaction was directly proportional to the amount of light emitted by the scintillant.
The N-terminal 6-histidine tagged HCV polymerase, derived from HCV Con1 strain, genotype 1b (NS5B570n-Con1) contains a 21 amino acid deletion at the C-terminus relative to the full-length HCV polymerase and was purified from E. coli strain BL21 (DE) pLysS. The construct, containing the coding sequence of HCV NS5B Con1 (GenBank accession number AJ242654) was inserted into the plasmid construct pET17b, downstream of a T7 promoter expression cassette and transformed into E. coli. […]
The amount of light emitted from the scintillant was converted to counts per minute (CPM) on a Topcount® plate reader (Perkin-Elmer, Energy Range: Low, Efficiency Mode: Normal, Count Time: 1 min, Background Subtract: none, Cross talk reduction: Off).
Data was analyzed in Excel® (Microsoft®) and ActivityBase® (Idbs®). […] All data was expressed as a percentage of the positive control. […]

[2] = test system: rat hepatocytes; assay: NTP generation in rat hepatocytes; assay type: in vitro ADME, male Wistar rats; details: for Rat hepatocyte NTP: Table 2
Procedure: Hepatocytes were prepared from male Wistar rats (250-300 g) according to the procedure of Berry and Friend (Berry, M. N.; Friend, D. S. J. Cell Biol. 1969, 43, 506-520) as modified by Groen (Groen, A. K.; Sips, H. J.; Vervoom, R. C.; Tager, J. M. Eur. J. Biochem. 1982, 122, 87-93). Hepatocytes (20 mg/mL wet weight, >85% trypan blue viability) were incubated at 37° C. in 2 mL of Krebs-bicarbonate buffer containing 20 mM glucose, and 1 mg/mL BSA for 2 h in the presence of 10 μM nucleoside or prodrug (from 10 mM stock solutions in DMSO, n>4).
Following the incubation of 4′-azidocytidine analogues, 1600 μL aliquot of the cell suspension was centrifuged and 300 μL of acetonitrile was added to the pellet, vortexed and sonicated until the pellet broke down. Then 200 μL of water was added to make a 60% acetonitrile solution. After 10 min centrifugation at 14,000 rpm, the resulting supernatant was transferred to a new vial and evaporated to near dryness in a Savant SpeedVac Plus at room temperature. The dried residue was reconstituted with 200 μL of water and the mixture was centrifuged for 10 min at 14,000 rpm. A mixture of 35 μL aliquot of supernatant and 35 μL of mobile phase A (20 mM N—N-dimethylhexylamine and 10 mM propionic acid in 20% methanol) was analyzed by LC-MS/MS (Applied Biosystems, API 4000) equipped with an Agilent 1100 binary pump and a LEAP injector. NTP was detected by using MS/MS mode (M-/78.8) and quantified based on comparison to a standard of 2′-C-methyladenosine-5′-triphosphate for 4′-azidocytidine and the compound described in Example 1.
Following incubation of the 4′-azidouridine analogues, 1600 μL aliquot of the cell suspension was centrifuged and 500 μL of acetonitrile containing 0.1 mg/mL dicyclohexylcarbodiimide (DCCD) and 0.1% ammonium hydroxide was added to the pellet and vigorously mixed by vortexing. Liver extracts were analyzed by LC-MS/MS using a Luna NH2 column (5 micron, 2×50 mm, Phenomenex) fitted with a SecurityGuard C18 guard column (5 micron, 4.0×2.0 mm, Phenomenex) and eluted with a gradient from mobile phase A (10 mM ammonium acetate in 50% acetonitrile) to B (1 mM ammonium acetate in 50% acetonitrile containing 1% concentrated ammonium hydroxide) at a flow rate of 0.6 mL/min. The injector temperature was set at 4° C. 4′-AUMP, 4′-AUDP, and […] were detected using the MS/MS mode (364.1/150.8 for 4′-AUMP, 444.1/176.8 for 4′-AUDP, and 524.1/158.9 for 4′-AUTP) and quantified by comparison of peak areas to standard curves obtained by spiking known concentrations of the analytes to blank liver extract.

[3] = test system: hepatitis C virus replicon; details: cited from earlier work
[4] = Evaluation of liver NTP levels in rat; assay type: in vivo, Sprague-Dawley or Wistar rats; details: i.v. administration as printed
[5] = Rat portal vein pharmacokinetic study; set-up: species or system Male Hanover-Wistar (HW) rats; details: in vivo, 7 mg/kg
Procedure: Pharmacokinetic analysis of the esters was carried out as described in Example 2. The calculated value for % Fhepatic is the ratio of measured of the quantity present in the post-hepatic
[formula] circulation (AUCjugular) to the pre-hepatic concentration (AUCportal). This value reflects uptake of the prodrug by hepatocytes. […] These values reflect observed concentrations of non-esterified drug phosphate 26a. The calculated value % Fgut is the ratio of the concentration
[formula] of 26a observed in the portal vein which directly reflects absorption through the gut compared to the concentration observed in the jugular vein after i.v. administration of the same dose. Increased absorption through the gut will increase the observed % Fgut.
Male Hanover-Wistar (HW) rats were obtained from Charles River Laboratories (Wilmington, Mass.). […] Plasma samples were extracted by protein precipitation and analyzed by liquid chromatography coupled to tandem mass spectrometry (LC/MS/MS) for concentrations of 26b, 26a and 20.
Pharmacokinetic parameters were calculated using a non-compartmental model in Watson software (Watson, Thermo Fisher, Waltham, Mass.). % Fhepatic was calculated from the dose-normalized area under the curve (AUC) values obtained from sampling either the portal or jugular vein after PO administration as follows: […]

[6] = test system: HCV; details: phase 2 study, 1500 mg BID for 14 days; cited from earlier work
[7] = test system: HCV; details: chimpanzee, 7 days, cited from earlier work

[N-]=[N+]=N[C@]1(COP(=O)(O)O)O[C@@H](n2ccc(=O)[nH]c2=O)[C@H](O)[C@@H]1O [4′-AU monophosphate]
IC50 [1]: 0.218 µM

[N-]=[N+]=N[C@]1(CO)O[C@@H](n2ccc(=O)[nH]c2=O)[C@H](O)[C@@H]1O [4′-azidouridine]
Rat hepatocyte NTP ([2]; 10 μM): <LOQ | EC50 [3]: > 100 µM | potency in the cell-based replicon assay [3]: inactive

[N-]=[N+]=N[C@]1(CO[P@@]2(=O)OCC[C@@H](c3cccc(Cl)c3)O2)O[C@@H](n2ccc(N)nc2=O)[C@H](O)[C@@H]1O [Example 1, 4′-azido-cis-5′-O-[4-(S)-(3-chlorophenyl)-2-oxo-1,3,2-dioxaphosphorinan-2-yl]-cytidine]
nucleoside triphosphate levels in treated rat hepatocytes [2]: dose dependent increase | NTP levels after administration to a rat [4]: very low levels

[N-]=[N+]=N[C@]1(CO[P@@]2(=O)OCC[C@@H](c3cccc(Cl)c3)O2)O[C@@H](n2ccc(=O)[nH]c2=O)[C@H](O)[C@@H]1O [Example 2, 4′-azido-cis-5′-O-[4-(S)-(3-Chlorophenyl)-2-oxo-1,3,2-dioxaphosphorinan-2-yl]uridine]
nucleoside triphosphate levels in treated rat hepatocytes [2]: dose dependent increase | NTP levels after administration to a rat [4]: elevated levels

[N-]=[N+]=N[C@]1(COP2(=O)OCC[C@@H](c3ccc(Br)cc3F)O2)O[C@@H](n2ccc(=O)[nH]c2=O)[C@H](O)[C@@H]1O (some centres unmarked) [Example 43]
circulating diester after oral dosing [5]: no circulating diester is observed

C[C@H](NP(=O)(OC[C@@]1(N=[N+]=[N-])O[C@@H](n2ccc(=O)[nH]c2=O)[C@H](O)[C@@H]1O)Oc1cccc2ccccc12)C(=O)OCc1ccccc1 (some centres unmarked) [Example R0142]
EC50 [3]: 0.22 µM

[N-]=[N+]=N[C@]1(CO)O[C@@H](n2ccc(N)nc2=O)[C@H](O)[C@@H]1O [Example R1479, 4′-azidocytidine]
Rat hepatocyte NTP ([2]; 10 μM): <LOQ | nmol NTP/g @ 10 μM (±SEM) ([2]; rat hepatocytes, 10 μM, 2 h, Table 4): <LOQ | EC50 [3]: 1.28 µM | potency in the cell-based replicon assay [3]: reasonable potency

CC(C)C(=O)OC[C@@]1(N=[N+]=[N-])O[C@@H](n2ccc(N)nc2=O)[C@H](OC(=O)C(C)C)[C@@H]1OC(=O)C(C)C [Example R1626]
mean reduction in serum viral titer [6]: 1.2 log10

C[C@@]1(O)[C@H](O)[C@@H](CO)O[C@H]1n1ccc2c(N)ncnc21 [MK-0608]
reduction in viral titer ([7]; intravenous dose of 2 mg/kg/day): > 5 log10

CC(C)C(N)C(=O)O[C@@H]1[C@@H](CO)O[C@@H](n2ccc(N)nc2=O)[C@]1(C)O (some centres unmarked) [NM283]
reduction in viral titer ([7]; 16.6 mg/kg/day): 1.15 log10
